Source: patent publication US20090304744A1, “METHODS OF ENHANCING IMMUNE RESPONSE IN THE INTRADERMAL COMPARTMENT AND COMPOUNDS USEFUL THEREOF” (priority 2003, published 2009)
Read-outs that look alike come from different tables or passages of the source.

Experiments:
[1] = system: trivalent test antigen (New Calcdonia, Panama and B-Hong Kong); set-up: species or system Hartley Guinea Pigs; conditions: guinea pig, in vivo
swine skin = conditions: for Erythema Draize scores (tolerability): Tween 80 5%, Deoxycholate 0.1%, D-sorbitol 5%, Lutrol 15%, without antigen, 200 ul per injection, 31 gauge 1.5 mm, 1 h and 24 h readings; for tolerated amphotericin per dose / tolerated total amphotericin per dose: Draize score 1 hour post administration
[2] = system: influenza antigen (Influenza APR834); type: in vivo, Balb/c mice; conditions: for Trend in immune response as indicated by ELISA signal (1:123 serum screening dilution): mice
guinea pig skin = assay: Guinea pig erythema Draize scoring after ID delivery of excipients; type: in vivo, Hartley guinea pigs; conditions: Tween 80 5%, Deoxycholate 0.1%, D-sorbitol 5%, Lutrol 15%; without antigen, 50 ul per injection, 34 gauge 1.0 mm; immediate, 1 h and 24 h readings
Description: The methods of the invention provide fundamental principles and guidelines whereby optimum parameters may be determined for delivering immunogenic compositions to the dermal compartment (including epidermal and intradermal compartments) wherein the excipients have optimum adjuvant properties and the formulations of the invention have enhanced efficacy in comparison to when the same formulation is delivered using conventional modes of delivery, including intramuscular and subcutaneous delivery. The invention provides methods wherein the formulations of the invention have been screened to have optimum concentration ranges for delivery to the optimum depth of the intradermal compartment such that they have adjuvant properties, resulting in one or more of the following properties: minimal to no skin irritation as determined and assessed using conventional modes of analysis of skin reactions using visual methods such as Draize scoring (For a typical draize scoring analysis see table below); minimal to no hemolysis as determined using standard methods known in the art, and enhanced immune response as measured by enhanced seroconversion and/or enhanced antibody titers.
Erythema Draize scores for various excipients were determined using procedures described in Section 5.4, above. In one study, Tween™ 80 (5%), Deoxycholate (0.1%), D-sorbitol (5%) or Lutrol™ (15%) was administered (50 μl per injection) without the antigen to Hartley guinea pigs using 34 gauge, 1.0 mm needles. […] Deeper administrations will be necessary for deoycholate to be used reliably at this concentration. From left to right, the reading immediately after administration, the one-hour reading and the 24-hour reading.

[3] = Yorkshire swine, 1.5 mm depth, listed as Amp-B

C[C@H](CCC(=O)[O-])[C@H]1CC[C@H]2[C@@H]3CC[C@@H]4C[C@H](O)CC[C@]4(C)[C@H]3C[C@H](O)[C@]12C.[Na+] [Deoxycholate, sodium deoxycholate]
hemagglutin specific titer vs FLUZONE alone ID and FLUZONE alone IM [1]: outperformed | Erythema Draize scores (tolerability) (swine skin): just above the acceptable draize score | skin compatibility (swine skin; deoxycholate 0.05 and 0.1% +/- trivalent vaccine, 1.5 mm depth, Yorkshire swine): performed well | skin compatibility (swine skin; deoxycholate 0.5% W/V and higher, 1.5 mm depth): could not be tolerated | animals seroconverted 21 days after immunization ([2]; DOC-supplemented (0.1% sodium deoxycholate) FLUZONE, ID, Balb/c mice): 5 of 5 | median titer ([2]; ID formulation containing 0.1% sodium deoxycholate vs IM and ID without, Balb/c mice): best median titer | Erythema Draize scores (tolerability) (guinea pig skin): just above the acceptable draize score

OC[C@@H](O)[C@@H](O)[C@H](O)[C@@H](O)CO [D-sorbitol]
erythema (swine skin; 10% W/V, 1-2 mm depth, 20-24 hours post administration, Yorkshire swine): mild erythema | tolerability (swine skin; 10%, delivered to 1-2 mm depth, Yorkshire swine): well tolerated | Erythema Draize scores (tolerability) (swine skin): reasonably well-tolerated | serum titer enhancement vs equal amount of Fluzone without sorbitol ([2]; Fluzone supplemented with sorbitol, ID, six point ELISA): 3 × | Trend in immune response as indicated by ELISA signal (1:123 serum screening dilution) ([2]; excipient 2% w/v with FLUZONE, ID): 1.062 | Trend in immune response as indicated by ELISA signal (1:123 serum screening dilution) ([2]; excipient 10% w/v with FLUZONE, ID): 1.102 | Trend in immune response as indicated by ELISA signal (1:123 serum screening dilution) ([2]; excipient 58% w/v with FLUZONE, ID): 1.58 | Erythema Draize scores (tolerability) (guinea pig skin): reasonably well-tolerated

CCO [Ethanol]
Trend in immune response as indicated by ELISA signal (1:123 serum screening dilution) ([2]; excipient 0.05% v/v with FLUZONE, ID): 0.901 | Trend in immune response as indicated by ELISA signal (1:123 serum screening dilution) ([2]; excipient 0.15% v/v with FLUZONE, ID): 2.742 | Trend in immune response as indicated by ELISA signal (1:123 serum screening dilution) ([2]; excipient 0.45% v/v with FLUZONE, ID): 1.530

oxtoxynol 9 [Triton N-101]
Trend in immune response as indicated by ELISA signal (1:123 serum screening dilution) ([2]; excipient 0.13% w/v with FLUZONE, ID): 0.805 | Trend in immune response as indicated by ELISA signal (1:123 serum screening dilution) ([2]; excipient 1.3% w/v with FLUZONE, ID): 2.035

Triton X-100
Trend in immune response as indicated by ELISA signal (1:123 serum screening dilution) ([2]; excipient 0.0001% w/v with FLUZONE, ID): 1.321 | Trend in immune response as indicated by ELISA signal (1:123 serum screening dilution) ([2]; excipient 0.0009% w/v with FLUZONE, ID): 1.214

NC(N)=O [Urea]
Trend in immune response as indicated by ELISA signal (1:123 serum screening dilution) ([2]; excipient 1% w/v with FLUZONE, ID): 0.979 | Trend in immune response as indicated by ELISA signal (1:123 serum screening dilution) ([2]; excipient 5% w/v with FLUZONE, ID): 1.585 | Trend in immune response as indicated by ELISA signal (1:123 serum screening dilution) ([2]; excipient 20% w/v with FLUZONE, ID): 1.555

C[C@@H]1[C@H](O)[C@@H](C)/C=C/C=C/C=C/C=C/C=C/C=C/C=C/[C@H](O[C@@H]2O[C@H](C)[C@@H](O)[C@H](N)[C@@H]2O)C[C@@H]2O[C@](O)(C[C@@H](O)C[C@@H](O)[C@H](O)CC[C@@H](O)C[C@@H](O)CC(=O)O[C@H]1C)C[C@H](O)[C@H]2C(=O)O [Amphotericin B, reference compound]
tolerated amphotericin per dose (swine skin; Yorkshire swine, 1.5 mm depth): up to 600 ng/100 ul | tolerated total amphotericin per dose (swine skin; Yorkshire swine, 1.5 mm depth): ≤ 1200 ng/200 ul | tolerated amphotericin per dose (swine skin; [3]): 600 ng/100 ul | tolerated total amphotericin per dose (swine skin; [3]): 1200 ng/200 ul | tolerability by Draize score analysis (swine skin; alone and as a mixture with FLUZONE vaccine, 1.5 mm depth, Yorkshire swine): well tolerated | Trend in immune response as indicated by ELISA signal (1:123 serum screening dilution) ([2]; excipient 20 ng/ml with FLUZONE, ID): 0.975 | Trend in immune response as indicated by ELISA signal (1:123 serum screening dilution) ([2]; excipient 60 ng/ml with FLUZONE, ID): 1.575 | Trend in immune response as indicated by ELISA signal (1:123 serum screening dilution) ([2]; excipient 180 ng/ml with FLUZONE, ID): 1.018

O=S([O-])O.[Na+] [Sodium Bisulfite]
Trend in immune response as indicated by ELISA signal (1:123 serum screening dilution) ([2]; excipient 0.3% w/v with FLUZONE, ID): 0.808 | Trend in immune response as indicated by ELISA signal (1:123 serum screening dilution) ([2]; excipient 0.9% w/v with FLUZONE, ID): 1.833 | Trend in immune response as indicated by ELISA signal (1:123 serum screening dilution) ([2]; excipient 2.7% w/v with FLUZONE, ID): 2.048
